Experimental data taken from patent publication US9737552B2, “Treatment of cognitive impairment in a subject with a neurological autoimmune disease” (The Johns Hopkins University, priority 2010, dated 2017).
Read-outs that look alike come from different tables or passages of the source.

Columns and labels:
[1] = tested on: EAE mice
Description: A separate cohort of 2-PMPA and Control EAE mice (n=6-7) were tested on the elevated plus maze 27 days after disease induction. Mice were placed in the center of the maze and given 5 minutes to freely explore the maze. Time spent in open and closed arms of the maze were tracked using ANY-maze software (Stoelting, Wood Dale, Ill.).

[2] = tested on: EAE mice; experiment: Barnes maze testing in EAE mice; assay type: in vivo
Description: To measure cognitive function in EAE mice, Barnes maze testing was conducted using the immunized mice, beginning approximately 4 weeks post-immunization. […] Animals were trained on the Barnes maze (AccuScan Instruments, Columbus, Ohio) for 4 trials per day (inter-trial interval >30 minutes) for 4 consecutive days. Briefly, mice were placed in the center of the maze platform under an opaque enclosed 3″×5″× container. After 15 seconds the container was removed and the mice were free to move in the maze. A target box was placed under 1 of the 40 holes around the maze perimeter, and the location of the target box, along with the location of 4 equally spaced polarizing visual cues and one lamp, remained the same throughout all trials. Mice were given up to 3 minutes to locate and enter the target box, and were gently guided into the target box if it was not found within the 3 minute limit. Following entry into the target box, the box was covered and the mouse remained in the box for 30 seconds before transfer to a holding cage. Paths were recorded and latency to the target hole, path efficiency, speed, and directional times were calculated using ANY-maze software (Stoelting, Wood Dale, Ill.).

[3] = Mass spectrometry of 2-PMPA concentration in post-mortem brains of EAE mice; assay type: in vivo; details: mouse, ip, Mean±SEM, 100 mg/kg daily i.p., sacrifice 50 days after immunization
Description: (§1) To determine whether GCPII inhibition altered the levels of the enzyme's substrate (NAAG) or product (NAA), mass spectrometry was conducted in post-mortem brains of EAE mice either treated with 2-PMPA or a vehicle control. Animals were sacrificed by cervical dislocation 50 days after EAE immunization. Hippocampus, frontal lobe, and cerebellum structures were dissected, and NAA, NAAG, and 2-PMPA concentrations were measured via mass spectrometry. Briefly, NAAG and NAA in brain tissue homogenates were separated on a Waters Atlantis ODS column. NAA, NAAG, and the internal standard were monitored by tandem mass spectrometry with electrospray negative ionization. Linear calibration curves were generated over the range of 5-5000 ng/mL and converted to μg/g. For determination of 2-PMPA, separations were achieved on a Waters XTerra MS C18 column. 2-PMPA and the internal standard were monitored by tandem mass spectrometry with electrospray negative ionization. Linear calibration curves were generated over the 1-100 ng/mL range and converted to μg/g.

[4] = tested on: EAE mice; experiment: EAE disease score in MOG35-55 immunized mice; assay type: in vivo; details: 100 mg/kg daily i.p. from immunization until sacrifice; vs Control mice
[5] = tested on: EAE mice; experiment: Fear conditioning test in EAE mice; assay type: in vivo
Description: To measure fear memory and amygdala function in EAE mice, fear conditioning tests were performed. Following the Barnes maze testing, animals were given 1-2 weeks rest then subjected to fear conditioning. Briefly, animals were placed in a fear conditioning chamber for 240 seconds on 3 consecutive days. On day 1, a 2000 Hz tone was played for 28 seconds (seconds 180-208), immediately followed by a 2 second scrambled footshock (seconds 208-210). On day 2, animals were placed back in the same testing environment, but neither sound nor shock was administered. On days 3 and 5, mice were placed in a novel wooden box inside the fear conditioning chamber, and a 2000 Hz tone was played for 120 seconds (seconds 121-240). The duration of freezing behavior on each day was measured using FreezeScan software (Clever Sys Inc., Reston, Va.).

[6] = tested on: GCPII; experiment: Mass spectrometry of NAA and NAAG in post-mortem brains of EAE mice; assay type: in vivo; details: Mean±SEM, 50 days after EAE immunization
Description: as §1

In the case of `O=C(O)CCC(CP(=O)(O)O)C(=O)O` (centres unmarked) [2-PMPA, 2-(phosphonomethyl)pentanedioic acid], the “Time spent in the closed arms” value [1] is reported as 224.2±10.07, the “Time spent in the open arms” value [1] is reported as 34.10±9.22 and the “Primary latency, total latency and path efficiency on the first two days of Barnes maze testing” value ([2]; 100 mg/kg daily i.p., vs vehicle) is reported as “equal between groups”. For the same compound, the “Path efficiency, first trial of day 4 compared to baseline (day 1, trial 1)” value ([2]; Mean±SEM, 100 mg/kg daily i.p., p=0.0029 vs Control) was −0.7276±0.0295, the “Primary latency, first trial of day 4 compared to baseline (day 1, trial 1)” value ([2]; Mean±SEM, 100 mg/kg daily i.p., p=0.0072 vs Control) was 167.4±1.187 and the “Total latency, first trial of day 4 compared to baseline (day 1, trial 1)” value ([2]; Mean±SEM, 100 mg/kg daily i.p., p=0.0171 vs Control) was 167.4±1.187. The “Path efficiency, back-to-back trials on consecutive days (long-term memory)” value ([2]; Mean±SEM, e.g. trial 4 of day 3 vs. trial 1 of day 4, p=0.020 vs controls) was −0.1377±0.0937, the “Total latency, back-to-back trials on consecutive days (long-term memory)” value ([2]; Mean±SEM, e.g. trial 4 of day 3 vs. trial 1 of day 4, p=0.021 vs controls) was 13.14±7.69 and the “Maximum speed in the maze” value ([2]; vs control EAE group) was “No differences”. For the same compound, the concentration at 50 days after EAE immunization ([3]; cerebellum, read-out: 2-PMPA in the cerebellum) was 832 ± 56 ng/g, the concentration at 50 days after EAE immunization ([3]; frontal cortex, read-out: 2-PMPA in the frontal cortex) was 1190 ± 222 ng/g and the concentration at 50 days after EAE immunization ([3]; hippocampus, read-out: 2-PMPA in the hippocampus) was 835 ± 264 ng/g. The “Disease severity and progression, as measured by EAE disease scores” value [4] was “did not differ”, the “Baseline freezing on Day 1” value ([5]; Day 1) was less than 20% and the “Cued freezing behavior on Day 3” value ([5]; Day 3, vs control) was “No differences”. The “Cued freezing in response to the 120 second tone on Day 5” value ([5]; Day 5, specifically in the last 60 seconds, vs control) was “increased cued freezing”, the “Contextual freezing on Day 2” value ([5]; Mean±SEM, Day 2, % time freezing (FIG. 5 legend)) was 50.49±4.18 and the “NAAG concentration in the frontal cortex” value ([6]; p=0.0002 vs control) was 32.91 ± 0.93 µg/g. The “NAAG concentration in the cerebellum” value ([6]; p=0.0655 vs control) was 102.4 ± 2.3 µg/g, the “NAA in the hippocampus” value ([6]; p=0.2895 vs control) was 985.0 ± 48.12 µg/g and the “NAA in the frontal cortex” value ([6]; p=0.3035 vs control) was 1134 ± 45.65 µg/g. The “NAA in the cerebellum” value ([6]; p=0.3053 vs control) was 899.3 ± 19.66 µg/g and the “NAAG concentration in the hippocampus” value ([6]; p=0.8575 vs control) was 54.98 ± 2.037 µg/g.
